Results from patent US20250269072A1, “PROCESSES FOR PREPARING RADIOLABELLED CONJUGATES” (CENTENARY INSTITUTE OF CANCER MEDICINE AND CELL BIOLOGY, priority 2021, published 2025).

Columns and labels:
[1] = In-human study of ^68Ga-CDI: biodistribution (PET CT, blood, urine); assay type: in vivo
Procedure: Subjects were encouraged to be well orally hydrated prior to ^68Ga-CDI administration, otherwise there was no preparation required. Two intravenous cannulas were placed (one for administration of ^68Ga-CDI and the other blood sampling during the study). Immediately prior to ^68Ga-CDI administration clinical assessment of participants was performed, vital signs (blood pressure, heart rate, respiratory rate, arterial oxygen saturation and temperature) measured and a 12-lead electrocardiogram (ECG) obtained and QTc calculated according to Bazett's formula to confirm eligibility. ^68Ga-CDI was administered as an intravenous bolus.
Eight serial PET scans were then performed from skull vertex to the proximal femora. The first PET scan commenced immediately following administration of ^68Ga-CDI, with subsequent scans commencing at approximately 7, 17, 29, 47, 64, 120 and 180 minutes after administration (+/−5 minutes). All scans were performed on a Phillips ingenuity TF 128 PET CT scanner (Philips Medical Systems, Cleveland) with acquisition times increasing for each subsequent scan ranging from 30 s/bed (immediately after administration) to 240 s/bed (at 180 minutes after administration) to compensate for excretion and decay. All PET scans were reconstructed using CT attenuation correction with a time of flight, list-mode, blob-based, ordered subsets maximum likelihood expectation maximization algorithm (BLOB-OS-TF) (reconstructed voxel size 4×4×4 mm).
Immediately prior to the scan commencing at approximately 47 minutes post administration a low-dose, non-contrast CT of the same region was performed for attenuation correction and localisation (of the first six scans during which time the patient had not moved) (44-120 mAs, 120-140 kV adjusted for body weight and body mass index, iDose 3 iterative reconstruction, reconstructed voxel size 1.17×1.17×3 mm). Ultra-low dose non-contrast CT (25 mAs, 100 kV, filtered back projection reconstruction, reconstructed voxel size 1.17×1.17×3 mm) was performed for attenuation correction immediately prior to the 120 minute and 180 minute PET scans.
During and immediately following completion of the scanning protocol, subjects were clinically assessed for adverse reactions and vital signs measured. Blood was collected for venous radioactivity measurements at 1, 2 and 3 hours following ^68Ga-CDI administration. Subjects were asked to void between 1.5 to 2 h and 2.75 to 3 h after ^68Ga-CDI administration, urine collected, the volume measured, and an aliquot counted in a gamma counter to determine activity concentration. Following completion of the scanning protocol, ECG was recorded, and blood collected for biochemical and haematological assessment.
For analysis of uptake and biodistribution in normal tissues and organs, spherical volumes of interest (VOIs) were drawn on the Digital Imaging and Communications in Medicine (DICOM) ^68Ga-CDI-PET emission data on a workstation (IntelliSpace Portal, V5.0.2.60000, Philips Medical System, Best, The Netherlands) by an experienced nuclear medicine physician over clearly tumor-free regions of organs. VOI diameter varied depending on organ size but where possible was at least 10 mm. Spherical VOIs were also drawn over all tumor deposits greater than 10 mm in diameter. These VOIs were replicated across all time points and the mean, maximum and standard deviation of the activity concentration (Bq/mL) of all VOIs at each time point was recorded. Activity concentration was used to calculate the % injected activity (% IA) for organs and tissues based on the masses of source organs for standard phantom male and female models (Stabin & Siegel, Health Phys. 2003; 85:294-310). Mean, maximum and standard deviation of the SUV for each VOI was also a calculated from the activity concentration using the slope intercept stored with the DICOM CDI PET emission data.

[2] = system: tumour deposits; assay: Human studies: tumour uptake by PET and histological correlation; assay type: in vivo
Text: patient with squamous cell carcinoma of the oesophagus • 2. Person with metastatic ovarian carcinoma • 3. Person with metastatic cutaneous squamous cell carcinoma • 4. Person with invasive ductal breast carcinoma.
Whilst blood pool and clearance are reproducible, tumour uptake and clearance vary by tumour type.
Dissected tumours were fixed in formalin, embedded in paraffin and 4 μm thick sections were cut. Adjacent sections were stained for apoptotic cells using TUNEL (Abcam, Cat #206386) or morphology using haematoxylin and eosin. For TUNEL staining, sections were deparaffinized in xylene, rehydrated in decreasing concentrations of ethanol and permeabilized with Proteinase K for 20 min at room temperature. The endogenous peroxidase activity was quenched with 3% H2O2 for 5 min. Apoptotic cells were labelled with biotinylated terminal deoxynucleotidyl transferase at 37° C. in a humidified chamber for 2 h followed by a 30 min incubation with streptavidin-HRP conjugate. HRP-positive cells were developed using diaminobenzidine and sections counterstained with methyl green (Sigma). Whole sections were imaged using PowerMosaic scanning at 10× magnification on a Leica DM6000D microscope.

[3] = system: squamous cell carcinoma lymph node metastases; assay: Histological correlation (TUNEL) with ^68Ga-CDI uptake; assay type: in vivo, human; conditions: subject 3, right axillary and right cervical nodal metastases
Text: In one subject, who proceeded to surgical excision of the tumor deposits 1 day after the ^68Ga-CDI PET scan, histological correlation of the tumor deposits were undertaken using haematoxylin and eosin staining and TUNEL staining to specifically identify dead and dying cells. Representative samples of the formalin fixed surgical specimens (following completion of all clinical analysis and excess to that required for archival purposes) from the right axillary and right cervical nodal masses were selected and provided by the reporting clinical pathologist. The tissues were fixed, rehydrated with ethanol and xylene and embedded in paraffin. A series of 4 μm thick sections were cut and stained with Haematoxylin and Eosin. Apoptotic cells were stained using the TUNEL assay kit HRP-DAB (Abcam, Cat #206386, Cambridge, MA, USA) according to manufacturer's protocol. Briefly, 4 μm sections of paraffin embedded tumor were deparaffinized in xylene and rehydrated in decreasing concentrations of ethanol. Tumor sections were permeabilized with Proteinase K for 20 min at room temperature. The endogenous peroxidase activity was quenched with 3% H2O2 for 5 min. Apoptotic cells were labelled with biotinylated Terminal deoxynucleotidyl Transferase (TdT) at 37° C. in humidified chamber for 2 h followed by a 30 min incubation with streptavidin-HRP conjugate. […]

SMILES: O=C(O)CNC(=O)[C@H](CSCC(=O)Nc1ccc([As](O)O)cc1)NC(=O)CC[C@H](NC(=O)CCC1C(=O)[O][68Ga]2[O]C(=O)CN3CCN(CCN1CC3)CC(=O)[O]2)C(=O)O (stereo partly drawn) [^68Ga-NODAGA-GSAO]
- activity remaining in the blood pool, average ([1]; 1 hour): 12.2 % IA
- average SUV kidneys ([1]; 1 hour post injection): 5.3 SUV
- activity remaining in the blood pool, average ([1]; 2 hours): 8.8 % IA
- average SUV kidneys ([1]; 2 hours post injection): 4.9 SUV
- activity remaining in the blood pool, average ([1]; 3 hours): 7.7 % IA
- average SUV kidneys ([1]; 3 hours post injection): 4.0 SUV
- total activity excreted in urine ([1]; by 90 minutes): 39±18%
- tumour uptake SUVmean ([2]; breast carcinoma): 1.8
- correlation of tumour uptake with dead and dying cells ([2]; histopathology): correlate with the proportion of dead and dying cells within the tumour
- tumour uptake SUVmean ([2]; metastatic cutaneous squamous cell carcinoma): 4.1
- tumour uptake SUVmean ([2]; metastatic ovarian carcinoma): 1.9
- tumour uptake SUVmean ([2]; patient 3, right axillary nodal metastasis): 4.1
- tumour uptake SUVmean ([2]; squamous cell carcinoma of the oesophagus): 3.8
- tumour uptake relative to blood pool ([2]; tumours with high uptake): up to 2 fold
- TUNEL positive cells versus intensity of uptake [3]: correlated
